Assay results as given in US9765075B2, “Substituted bridged urea analogs as sirtuin modulators” (GLAXOSMITHKLINE LLC, priority 2013, dated 2017).
Read-outs that look alike come from different tables or passages of the source.

Target: T1, SIRT1 (Homo sapiens, UniProt Q96EB6)
T1 sequence (Q96EB6 1-747): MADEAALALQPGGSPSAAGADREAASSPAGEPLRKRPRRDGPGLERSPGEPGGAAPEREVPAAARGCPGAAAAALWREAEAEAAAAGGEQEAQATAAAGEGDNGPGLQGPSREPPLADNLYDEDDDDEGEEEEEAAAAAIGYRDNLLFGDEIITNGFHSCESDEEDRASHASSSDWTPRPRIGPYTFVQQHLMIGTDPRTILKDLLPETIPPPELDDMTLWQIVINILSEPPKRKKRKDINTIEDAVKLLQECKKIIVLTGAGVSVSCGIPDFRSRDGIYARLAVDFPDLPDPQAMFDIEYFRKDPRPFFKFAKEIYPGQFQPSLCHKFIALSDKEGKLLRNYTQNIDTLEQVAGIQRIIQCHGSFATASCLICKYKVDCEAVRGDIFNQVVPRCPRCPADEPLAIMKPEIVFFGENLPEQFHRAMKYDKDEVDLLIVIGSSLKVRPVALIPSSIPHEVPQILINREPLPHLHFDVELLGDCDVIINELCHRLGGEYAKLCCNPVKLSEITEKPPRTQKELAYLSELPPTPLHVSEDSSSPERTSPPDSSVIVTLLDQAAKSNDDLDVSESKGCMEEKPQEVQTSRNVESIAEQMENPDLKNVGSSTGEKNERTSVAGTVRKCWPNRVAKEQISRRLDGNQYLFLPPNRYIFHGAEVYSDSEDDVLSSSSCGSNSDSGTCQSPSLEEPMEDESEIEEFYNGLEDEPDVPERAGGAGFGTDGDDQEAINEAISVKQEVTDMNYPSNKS
Assay: Trp mass spectrometry assay (SIRT1 activation)
Format: biochemical
Conditions: for Emax: percent maximum fold activation of SIRT1, read-out: Tryp % Fold Act
Description: Mass spectrometry based assays were used to identify modulators of SIRT1 activity. […] The peptide was labeled with the fluorophore 5TMR (excitation 540 nm/emission 580 nm) at the C-terminus. The sequence of the peptide substrate was based on p53 with several modifications. In addition, the methionine residue naturally present in the sequence was replaced with the norleucine because the methionine may be susceptible to oxidation during synthesis and purification. The Trp based assay utilized a peptide having an amino acid residues as follows: Ac-R-H-K-K(Ac)-W-NH2 (SEQ ID NO: 2).
The Trp mass spectrometry assay was conducted as follows. 0.5 μM peptide substrate and 120 μM βNAD^+ were incubated with 10 nM SIRT1 for 25 minutes at 25° C. in a reaction buffer (50 mM HEPES pH 7.5, […] NaCl, 1 mM DTT, 0.05% BSA). The SIRT1 protein was obtained by cloning the SirT1 gene into a T7-promoter containing vector, which was then expressed in BL21(DE3) bacterial cells and purified as described in further detail below. Test compound was added at varying concentrations to this reaction mixture and the resulting reactions were monitored. After the 25 minute incubation with SIRT1, 10 μL of 10% formic acid was added to stop the reaction. The resulting reactions were sealed and frozen for later mass spec analysis. The relative SIRT1 activity was then determined by measuring the amount of 0-acetyl-ADP-ribose (OAADPR) formed (or, alternatively, the amount of deacetylated Trp peptide generated) by the NAD-dependent sirtuin deacetylation reaction in the presence of varying concentrations of the test compound versus control reactions lacking the test compound. The degree to which the test agent activated deacetylation by SIRT1 was expressed as EC1.5 (i.e., the concentration of compound required to increase SIRT1 activity by 50% over the control lacking test compound), and Percent Maximum Activation (i.e., the maximum activity relative to control (100%) obtained for the test compound).
A control for activation of sirtuin activity was conducted using 10 nM of sirtuin protein, with 1 μL of DMSO in place of compound, to determine the amount of deacetylation of the substrate at a given time point within the linear range of the assay. This time point was the same as that used for test compounds and, within the linear range, the endpoint represents a change in velocity.
For the above assay, SIRT1 protein was expressed and purified as follows. The SirT1 gene was cloned into a T7-promoter containing vector and transformed into BL21(DE3). The protein was expressed by induction with 1 mM IPTG as an N-terminal His-tag fusion protein at 18° C. overnight and harvested at 30,000×g. Cells were lysed with lysozyme in lysis buffer (50 mM Tris-HCl, 2 mM Tris[2-carboxyethyl] phosphine (TCEP), 10 μM ZnCl2, 200 mM NaCl) and further treated with sonication for 10 min for complete lysis. The protein was purified over a Ni-NTA column (Amersham) and fractions containing pure protein were pooled, concentrated and run over a sizing column (Sephadex S200 26/60 global). The peak containing soluble protein was collected and run on an Ion-exchange column (MonoQ). Gradient elution (200 mM-500 mM NaCl) yielded pure protein. This protein was concentrated and dialyzed against dialysis buffer (20 mM Iris-HCl, 2 mM TCEP) overnight. The protein was aliquoted and frozen at −80° C. until further use.

[1] = concentration of test compound that results in 150% activation of SIRT1, Trp peptide substrate
[2] = Trp mass spectrometry assay, EC1.5 = concentration of test compound that results in 150% activation of SIRT1
[3] = Trp mass spectrometry assay, EC1.5 = concentration giving 150% activation of SIRT1

Tryp AVG EC1.5 (μM) [1]	Emax (Trp peptide substrate) [%]	Tryp AVG EC1.5 (μM) [2]	Emax (Trp mass spectrometry assay) [%]	Tryp AVG EC1.5 (μM) [3]	Structure (SMILES)
B (EC1.5 1-25 μM)	≥ 150	–	–	–	Cn1cc(-c2ccc3c(n2)N(C(=O)Nc2cccnc2)[C@H]2CCN3C2)cn1 [Example 395]
–	–	A (EC1.5<1 μM)	≥ 150	–	Cc1cnc2c(NC(=O)N3c4nc(-c5cccc(C(F)(F)F)c5)ccc4N4CC[C@H]3C4)cccc2n1 [76 (8)]
B (EC1.5 1-25 μM)	≥ 150	–	–	–	O=C(Nc1ccccn1)N1c2nc(-c3cccc(N4CCC(C(F)(F)F)C4)c3)ccc2N2CC[C@H]1C2 (some centres unmarked) [Example 318]
B (EC1.5 1-25 μM)	≥ 150	–	–	–	O=C(Nc1ccccn1)N1c2nc(-c3cccc(C(F)(F)F)n3)ccc2N2CC[C@H]1C2 [Example 336]
–	–	A (EC1.5<1 μM)	≥ 150	–	O=C(Nc1ccnnc1)N1c2nc(-c3cccc(Cl)c3)ccc2N2CC[C@H]1C2 [Example 120]
A (EC1.5<1 μM)	≥ 150	–	–	–	COc1cc(NC(=O)N2c3nc(-c4cncc(C(F)(F)F)c4)ccc3N3CCC[C@H]2C3)ncn1 [Example 394]
B (EC1.5 1-25 μM)	≥ 150	–	–	–	N#Cc1cccc(-c2ccc3c(n2)N(C(=O)Nc2cncc(F)c2)[C@@H]2CCCN3C2)c1 [Example 228]
A (EC1.5<1 μM)	≥ 150	–	–	–	O=C(Nc1cncc(F)c1)N1c2nc(-c3cccc(N4CC[C@H](F)C4)c3)ccc2N2CC[C@H]1C2 [Example 283]
–	–	–	≥ 150	–	O=C(Nc1cncc(F)c1)N1c2nc(-c3cccc(C(F)(F)F)c3)ccc2N2CCC[C@H]1C2 [Example 45]
–	–	A (EC1.5<1 μM)	≥ 150	–	O=C(Nc1ccncn1)N1c2nc(-c3cccc(Cl)c3)ccc2N2CC[C@H]1C2 [Example 110]
B (EC1.5 1-25 μM)	≥ 150	–	–	–	CN(C)[C@H]1CCN(c2ccc3c(n2)N(C(=O)Nc2cncc(F)c2)[C@H]2CCN3C2)C1 [Example 244]
–	–	A (EC1.5<1 μM)	≥ 150	–	COc1cncc(NC(=O)N2c3nc(-c4cccc(Cl)c4)ccc3N3CC[C@H]2C3)n1 [Example 121]
C (EC1.5>25 μM)	< 150	–	–	–	COc1cc(NC(=O)N2c3nc(-c4cnccc4C)ccc3N3CCC[C@H]2C3)ncn1 [Example 511]
–	–	A (EC1.5<1 μM)	≥ 150	–	Cc1nc(NC(=O)N2c3nc(-c4cccc(C#N)c4)ccc3N3CC[C@H]2C3)sc1C [Example 179]
A (EC1.5<1 μM)	≥ 150	–	–	–	CC(C)(C)OC(=O)N1CCc2cc(NC(=O)N3c4nc(-c5cccc(C(F)(F)F)c5)ccc4N4CC[C@H]3C4)ccc2C1 [Example 611]
B (EC1.5 1-25 μM)	≥ 150	–	–	–	Cc1ccc(-c2ccc3c(n2)N(C(=O)Nc2ccc(F)cn2)[C@H]2CCN3C2)cn1 [Example 237]
A (EC1.5<1 μM)	≥ 150	–	–	–	O=C(Nc1cc(-c2cnco2)ccn1)N1c2nc(-c3cccc(C(F)(F)F)c3)ccc2N2CCC1CC2 [Example 595]
–	–	–	≥ 150	B (EC1.5 1-25 μM)	O=C(NCCCc1ccccn1)N1c2nc(-c3cccc(C(F)(F)F)c3)ccc2N2CC[C@H]1C2 [Example 673]
–	–	B (EC1.5 1-25 μM)	≥ 150	–	Cc1nc(NC(=O)N2c3nc(-c4cccc(C(F)(F)F)c4)ccc3N3CC[C@@H]2C3)sc1C [Example 201]

Tryp AVG EC1.5 (μM) [1]	Emax (Trp peptide substrate) [%]	Tryp AVG EC1.5 (μM) [2]	Emax (Trp mass spectrometry assay) [%]	Tryp AVG EC1.5 (μM) [3]	Structure (SMILES)
–	–	–	≥ 150	B (EC1.5 1-25 μM)	CC(C)(C)OC(=O)NCc1ccc(NC(=O)N2c3nc(-c4cccc(C(F)(F)F)c4)ccc3N3CC[C@H]2C3)cc1 [Example 793]
A (EC1.5<1 μM)	≥ 150	–	–	–	O=C(Nc1cccnc1)N1c2nc(-c3cccc(N4CCOCC4)c3)ccc2N2CCC[C@H]1C2 [Example 538]
A (EC1.5<1 μM)	≥ 150	–	–	–	O=C(Nc1cccc(C2CCNC2)c1)N1c2nc(-c3cccc(C(F)(F)F)c3)ccc2N2CC[C@H]1C2 (some centres unmarked) [Example 593]
–	–	A (EC1.5<1 μM)	≥ 150	–	O=C(Nc1cccc2nccnc12)N1c2nc(-c3cccc(C(F)(F)F)c3)ccc2N2CC[C@H]1C2 [Example 83]
C (EC1.5>25 μM)	< 150	–	–	–	CC(=O)N1CCCN(c2ccc3c(n2)N(C(=O)Nc2ccncn2)[C@H]2CCCN3C2)CC1 [Example 434]
–	–	B (EC1.5 1-25 μM)	≥ 150	–	O=C(Nc1cncc(F)c1)N1c2nc(-c3cccc(N4CCCC4)c3)ccc2N2CC[C@H]1C2 [Example 198]
A (EC1.5<1 μM)	≥ 150	–	–	–	O=C(Nc1ccncc1)N1c2nc(-c3cccc(Cl)c3)ccc2N2CCC[C@H]1C2 [Example 409]
–	–	A (EC1.5<1 μM)	≥ 150	–	COc1cc(NC(=O)N2c3nc(-c4cccc(OC[C@@H](O)CO)c4)ccc3N3CC[C@H]2C3)ncn1 [Example 156]
B (EC1.5 1-25 μM)	≥ 150	–	–	–	COc1cc(NC(=O)N2c3nc(-c4cccc(N5CCC(F)(F)C5)c4)ccc3N3CC[C@H]2C3)ncn1 [Example 256]
–	–	–	≥ 150	–	O=C(Nc1ccnc(OCC(O)CO)n1)N1c2nc(-c3cccc(F)c3)ccc2N2CC[C@H]1C2 (some centres unmarked) [Example 65]
B (EC1.5 1-25 μM)	≥ 150	–	–	–	CC(C)n1cc(-c2ccc3c(n2)N(C(=O)Nc2cccnc2)[C@H]2CCN3C2)cn1 [Example 494]
A (EC1.5<1 μM)	≥ 150	–	–	–	CC(C)(C)OC(=O)NCCn1cc(-c2cccc(NC(=O)N3c4nc(-c5cccc(C(F)(F)F)c5)ccc4N4CCC[C@H]3C4)c2)nn1 [Example 604]
–	–	–	≥ 150	B (EC1.5 1-25 μM)	O=C(Nc1ccc(N2CCCCC2)cc1)N1c2nc(-c3cccc(C(F)(F)F)c3)ccc2N2CC[C@H]1C2 [Example 628]
A (EC1.5<1 μM)	≥ 150	–	–	–	CC(C)(C)OC(=O)NCc1cn(-c2cccc(NC(=O)N3c4nc(-c5cccc(C(F)(F)F)c5)ccc4N4CC[C@H]3C4)c2)nn1 [Example 605]
B (EC1.5 1-25 μM)	≥ 150	–	–	–	O=C(Nc1ccc2c(c1)CCC2)N1c2nc(-c3cccc(C(F)(F)F)c3)ccc2N2CC[C@H]1C2 [Example 624]
–	–	–	≥ 150	A (EC1.5<1 μM)	CC(C)(C)OC(=O)NCC#Cc1cc(NC(=O)N2c3nc(-c4cccc(C(F)(F)F)c4)ccc3N3CCC[C@H]2C3)cc(-c2cnco2)c1 [Example 760]
B (EC1.5 1-25 μM)	≥ 150	–	–	–	O=C(Nc1cncc(F)c1)N1c2nc(N3CCCC(C(F)(F)F)C3)ccc2N2CCC[C@@H]1C2 (some centres unmarked) [Example 304]
–	–	–	≥ 150	–	Cn1cc(NC(=O)N2c3nc(-c4cccc(C(F)(F)F)c4)ccc3N3CCC[C@H]2C3)cn1 [Example 40]
